Experimental data taken from patent US20100152165A1, “CARBOXYLIC ACID DERIVATIVES” (priority 2006, published 2010).
pEC50: −log10 of the molar value.

Columns and labels:
[1] = biological target: T1, human GPR40 (Homo sapiens, UniProt O14842); assay: GPR40 agonist activity measurement (FLIPR, intracellular calcium); type: cell-based; conditions: human GPR40-expressed CHO cell strain; fluorescence intensity change one minute after measurement
T1 construct: expressed in transfected cells
Excerpt: Test Method 1: GPR40 Agonist Activity Measurement
i) Cloning of Human GPR40
In accordance with the following procedure, complete length sequence of GPR40 was obtained by a PCR method using a human genomic DNA (Clontech) as the template.
An oligonucleotide consisting of the nucleotide sequence represented by SEQ ID NO:1 was used as the forward primer, and an oligonucleotide consisting of the nucleotide sequence represented by SEQ ID NO:2 as the reverse primer. In this connection, a nucleotide sequence containing a XbaI recognition sequence is added to the […] of each of the aforementioned forward primer and reverse primer. In the PCR, a cycle consisting of 94° C. (15 seconds)/55° C. (30 seconds)/72° C. (1 minute) was repeated 30 times using a Taq DNA polymerase (Ex Taq DNA polymerase; Takara Bio) in the presence of 5% dimethyl sulfoxide (DMSO). As a result, a DNA fragment of about 0.9 kbp was amplified. This DNA fragment was digested with XbaI and then inserted into the XbaI site of a plasmid pEF-BOS-dhfr (Nucleic Acids Research, 18, 5322, 1990) to obtain a plasmid pEF-BOS-dhfr-GPR40.
Nucleotide sequence of GPR40 gene in the plasmid pEF-BOS-dhfr-GPR40 was determined by the dideoxy terminator method using a DNA sequencer (ABI 377 DNA Sequencer; Applied Biosystems). Nucleotide sequence of the GPR40 gene was as the nucleotide sequence represented by SEQ ID NO:3.
ii) Preparation of GPR40 Stable Expression Cell
A CHO dhfr cell (a dihydrofolate reductase (dhfr) gene-deficient CHO cell) was used as the cell for expressing GPR40 protein. In addition, the plasmid pEF-BOS-dhfr-GPR40 obtained in the aforementioned i) was used as the expression plasmid for expressing the GPR40 protein. The CHO dhfr cell in 10% fetal calf serum (FCS)-containing aMEM medium was inoculated into a 6 well plate and cultured overnight to a stage of 80 to 90% confluent, and then gene transfer of 2 μg per well of the plasmid pEF-BOS-dhfr-GPR40 was carried out using a transfection reagent (Lipofectamine 2000; Invitrogen). After 24 hours of the culturing since the gene transfer, the cells were diluted and inoculated again. […] After 20 days of culturing, the thus formed colonies of cells were individually recovered and cultured to obtain CHO cells stably expressing GPR40. Cells showing high reactivity for integral ligands oleic acid and linoleic acid were selected from them.
iii) GPR40 Agonist Activity Measurement
This test was measured by FLIPR (registered trade mark, Molecular Device) using change in the intracellular calcium concentration as the index. The test method is shown below.
A human GPR40-expressed CHO cell strain was inoculated in 6×10^3 cells per well portions into a 384 well black plate (Becton-Dickinson). A Calcium-3 assay kit (Molecular Device) was used as the […] and dissolved in 10 ml per bottle of HBSS-HEPES buffer (pH 7.4, 1×HBSS, 20 mM HEPES, Invitrogen). A 35.68 mg portion of probenecid (Sigma) was dissolved in 250 μl of 1 M NaOH and then adjusted by adding 250 μl of HBSS-HEPES buffer. The fluorescence pigment solution was prepared by mixing 16 ml of HBSS-HEPES buffer, 640 μl of the fluorescence pigment and 32 μl of probenecid, per plate. The medium in the plate was discarded, and the fluorescence pigment solution was dispensed in 40 μl per well portions and incubated at room temperature for 2 hours. Each compound to be tested was dissolved in DMSO, diluted with HBSS-HEPES buffer and then dispensed in 10 μl portions into the plate to start the reaction and measure change in the intracellular calcium concentration by FLIPR. EC50 values of the compounds to be tested were calculated from the dose-response curve of fluorescence intensity changes one minute after the measurement.

[2] = test system: normal mice; assay: Normal mice single administration oral glucose tolerance test; type: in vivo; conditions: male ICR mice; 10 mg/kg oral 30 minutes before glucose (2 g/kg) loading; at 30 minutes of glucose loading, based on control group
Protocol: Test Method 3: Normal Mice Single Administration Oral Glucose Tolerance Test
This test examined on the blood glucose suppressive action of compounds to be tested after glucose loading using normal mice. Male ICR mice (6 weeks of age) were reared for 1 week in advance, subjected to overnight fasting and then used as animals to be tested. Each compound to be tested was prepared into a 0.5% methyl cellulose suspension and orally administered at a dose of 10 mg/kg 30 minutes before the glucose (2 g/kg) loading. In the control group, 0.5% methyl cellulose was administered. Blood glucose decreasing ratio (%) at the time of 30 minutes of glucose loading was calculated based on the control group.

[3] = test system: MIN6 cell; assay: Insulin secretion promoting action using MIN6 cell; type: cell-based, mouse; conditions: relative activity value at 1 μM of compound, control (DMSO) 100%; KRB-HEPES with 2.8 mM or 22.4 mM glucose, 37° C. 2 hours
Protocol: Test Method 2: Insulin Secretion Promoting Action using MIN6 Cell
In this test, the insulin secretion promoting action of compounds to be tested was examined using a mouse pancreatic β cell strain, MIN6 cell. The test method is shown below.
The MIN6 cell was inoculated onto a 96 well plate to a density of 5×10^4 cells/well (200 μl). As the medium, DMEM medium (25 mM glucose) containing 10% FBS, 55 μM of 2-mercaptoethanol, 100 U/ml of penicillin and 100 μg/ml of streptomycin was used. Two days thereafter, the medium was removed using an aspirator, and the plate was once washed with 200 μl of KRB-HEPES (116 mM NaCl, 4.7 mM KCl, 1.2 mM KH2PO4, 1.2 mM MgSO4, 0.25 mM CaCl2, 25 mM NaHCO3, 0.005% FFA Free BSA, 24 mM HEPES (pH 7.4)) containing 2.8 mM glucose, which had been warmed up to 37° C., and again filled with 200 μl of the same buffer and incubated at 37° C. for 1 hour. After removing the aforementioned buffer using an aspirator, this was again washed with the buffer (200 μl), and then a predetermined concentration of each compound to be tested was added to KRB-HEPES containing 2.8 mM or 22.4 mM of glucose, added in 100 μl portions to respective wells and incubated at 37° C. for 2 hours. The aforementioned samples were collected and diluted 100 times, and the insulin concentration was determined using an insulin RIA kit (Amersham). […]

T1 sequence (O14842 whole entry R211H): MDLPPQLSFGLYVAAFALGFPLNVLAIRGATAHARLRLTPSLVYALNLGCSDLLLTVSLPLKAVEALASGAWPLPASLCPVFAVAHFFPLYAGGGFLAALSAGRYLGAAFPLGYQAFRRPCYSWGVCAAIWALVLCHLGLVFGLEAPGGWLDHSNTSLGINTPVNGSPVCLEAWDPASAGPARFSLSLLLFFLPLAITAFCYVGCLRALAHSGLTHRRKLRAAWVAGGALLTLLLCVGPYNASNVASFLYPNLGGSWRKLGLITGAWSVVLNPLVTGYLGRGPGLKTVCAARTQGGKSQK

Row | pEC50 [1] | SMILES | Blood glucose decreasing ratio [2] [%] | Insulin secretion promoting action [3] [%]
1 | 6.89 | Cc1ccc(CNc2ccc(CCC(=O)O)c(F)c2)c2c1N(CCOc1ccccc1)CCC2 [Example 424] | – | –
2 | 6.38 | O=C(O)CCc1ccc(NCc2cccc3c2CCCN3CCOc2ccccc2)cc1F [Example 104] | 20 | 162
3 | 6.21 | O=C(O)CCc1ccc(NCc2cccc3c2CCCN3CCc2ccccc2)cc1F [Example 89] | 21 | –
4 | 6.14 | O=C(O)CCc1ccc(NCc2cccc3c2CCCN3CCOc2ccccc2)nc1 [Example 437] | – | –
5 | 6.44 | O=C(O)[C@@H]1C[C@H]1c1ccc(NCc2cccc3c2CCCN3CCOc2ccccc2)cc1 [Example 455] | – | –

Further lines, the molecule ahead of its results:

Row | SMILES | pEC50 [1] | Blood glucose decreasing ratio [2] [%] | Insulin secretion promoting action [3] [%]
6 | CC(=O)N1CCCc2ccc(COc3ccc(CCC(=O)O)c(F)c3)cc21 [Example 74] | 7.12 | – | –
7 | Cc1c(CNc2ccc(CCC(=O)[O-])c(F)c2)ccc2c1N(c1ccccn1)CCC2.[Na+] [Example 453] | 7.60 | 24 | –
8 | Cc1cccc(N2CCCc3ccc(CNc4ccc(CCC(=O)O)c(F)c4)c(C)c32)c1 [Example 215] | 6.49 | – | –
9 | COc1ccccc1CCN1CCCc2ccc(CNc3ccc(CCC(=O)O)c(F)c3)c(C)c21 [Example 188] | 7.44 | 24 | –
10 | Cc1c(CNc2ccc(CCC(=O)O)c(F)c2)ccc2c1N(c1ccc(C(F)(F)F)cc1)CCC2 [Example 211] | 6.03 | – | –
11 | O=C(O)CCc1ccc(OCc2ccc3c(c2)N(CCC(F)(F)F)CCC3)cc1F [Example 73] | 7.14 | – | –
12 | CCCN1CCCc2c(CNc3ccc(CCC(=O)O)c(F)c3)cccc21 [Example 87] | 7.09 | – | –
13 | CCCN1CCCc2cccc(CNc3ccc(CCC(=O)[O-])c(F)c3)c21.[Na+] [Example 57] | 7.01 | – | 167
14 | O=C(O)CCc1ccc(NCc2ccc3c(c2)N(c2ccccc2)CCC3)cc1F [Example 86] | 7.72 | – | –
15 | COc1ccccc1OCCN1CCCc2c(CNc3ccc(CCC(=O)O)c(F)c3)cccc21 [Example 176] | 7.04 | – | –
